Source: the NIST ThermoML archive (doi:10.1016/j.tca.2014.03.027)
± gives the expanded uncertainty stated by the source.

Legend:
[1] = 298.15 K; 101.33 kPa; Liquid; Vibrating tube method
[2] = molar heat capacity at constant pressure; conditions: 298.15 K; 101.33 kPa; Liquid; Small sample (50 mg) DSC
[3] = xn = mol fraction of the nth substance listed; conditions: 101 kPa, Liquid, Small sample (50 mg) DSC

NCc1ccccc1 [benzylamine]
Conditions	mass density [kg/m3]	molar heat capacity at constant pressure [J/K/mol]
[1]	978.337 ± 0.23	–
[2]	–	206.74 ± 4.1

NCc1ccccc1 [benzylamine] + CCCCCCC
[3], 293.15 K
Conditions	excess molar heat capacity [J/K/mol]
x1 = 0.1982	0.78 ± 0.17
x1 = 0.2473	1.66 ± 0.18
x1 = 0.2989	3.35 ± 0.25
x1 = 0.3496	4.17 ± 0.29
x1 = 0.3734	4.88 ± 0.32
x1 = 0.3986	5.87 ± 0.37
x1 = 0.4976	6.51 ± 0.4
x1 = 0.5988	5.47 ± 0.35
x1 = 0.6983	3.47 ± 0.26
x1 = 0.7991	1.46 ± 0.18

NCc1ccccc1 [benzylamine] + CCCCCO
excess molar heat capacity [J/K/mol], [3]
Conditions	293.15 K	298.15 K	308.15 K
x2 = 0.0495	2.15 ± 0.2	2.31 ± 0.21	2.12 ± 0.2
x2 = 0.1528	5.18 ± 0.34	5.79 ± 0.37	5.71 ± 0.36
x2 = 0.2765	8.64 ± 0.51	8.73 ± 0.51	8.42 ± 0.5
x2 = 0.2967	9.27 ± 0.54	9.48 ± 0.55	8.89 ± 0.52
x2 = 0.4512	12.51 ± 0.7	12.28 ± 0.69	11.2 ± 0.64
x2 = 0.4994	13.7 ± 0.76	13.25 ± 0.74	12.08 ± 0.68
x2 = 0.6006	13.71 ± 0.76	13.13 ± 0.73	11.91 ± 0.67
x2 = 0.6516	12.63 ± 0.71	12.04 ± 0.68	10.9 ± 0.62
x2 = 0.7019	11.57 ± 0.65	10.98 ± 0.62	9.9 ± 0.57
x2 = 0.7998	9.04 ± 0.53	8.54 ± 0.5	7.76 ± 0.46
x2 = 0.8493	7.39 ± 0.44	7.06 ± 0.43	6.31 ± 0.39
x2 = 0.899	5.41 ± 0.35	5.16 ± 0.34	4.6 ± 0.31
x2 = 0.9505	2.72 ± 0.23	2.46 ± 0.21	2.3 ± 0.21

NCc1ccccc1 [benzylamine] + CCCO
excess molar heat capacity [J/K/mol], [3]
Conditions	293.15 K	298.15 K	308.15 K
x2 = 0.0665	1.89 ± 0.19	2.55 ± 0.22	2.84 ± 0.23
x2 = 0.1004	2.96 ± 0.24	3.37 ± 0.25	3.45 ± 0.26
x2 = 0.1986	6.26 ± 0.39	6.74 ± 0.41	6.5 ± 0.4
x2 = 0.2994	9.38 ± 0.54	9.67 ± 0.56	9.53 ± 0.55
x2 = 0.4007	11.35 ± 0.64	11.45 ± 0.65	11.18 ± 0.63
x2 = 0.4477	11.83 ± 0.67	11.95 ± 0.67	11.58 ± 0.65
x2 = 0.5497	13.34 ± 0.74	13.25 ± 0.74	12.85 ± 0.72
x2 = 0.6032	13.04 ± 0.73	12.99 ± 0.73	12.57 ± 0.7
x2 = 0.6515	12.75 ± 0.71	12.91 ± 0.72	12.84 ± 0.72
x2 = 0.6998	12.05 ± 0.68	12.14 ± 0.68	11.7 ± 0.66
x2 = 0.8014	9.42 ± 0.55	9.48 ± 0.55	9.06 ± 0.53
x2 = 0.849	7.29 ± 0.44	7.32 ± 0.44	7.22 ± 0.44
x2 = 0.9003	4.9 ± 0.32	5.05 ± 0.33	4.75 ± 0.32

NCc1ccccc1 [benzylamine] + CO
excess molar heat capacity [J/K/mol], [3]
Conditions	293.15 K	298.15 K	308.15 K
x2 = 0.0537	1.16 ± 0.17	1.26 ± 0.17	1.59 ± 0.18
x2 = 0.1106	2.61 ± 0.22	2.84 ± 0.23	3.36 ± 0.25
x2 = 0.2041	5.02 ± 0.33	5.43 ± 0.35	6.08 ± 0.38
x2 = 0.2963	7.9 ± 0.47	8.16 ± 0.48	8.87 ± 0.52
x2 = 0.3518	9.32 ± 0.54	9.77 ± 0.56	10.2 ± 0.58
x2 = 0.397	10.86 ± 0.62	11.3 ± 0.64	11.89 ± 0.67
x2 = 0.4966	12.24 ± 0.69	12.88 ± 0.72	13.26 ± 0.74
x2 = 0.5512	12.66 ± 0.71	13.17 ± 0.74	13.67 ± 0.76
x2 = 0.5987	12.63 ± 0.71	12.99 ± 0.73	13.38 ± 0.75
x2 = 0.6991	10.63 ± 0.61	11.13 ± 0.63	11.55 ± 0.65
x2 = 0.7484	9.18 ± 0.53	9.49 ± 0.55	10 ± 0.57
x2 = 0.7988	7.43 ± 0.45	7.67 ± 0.46	8.28 ± 0.49
x2 = 0.849	4.92 ± 0.32	5.29 ± 0.34	5.72 ± 0.36
x2 = 0.9009	3.22 ± 0.25	3.49 ± 0.26	3.8 ± 0.27

CCCCCCC [heptane]
Conditions	molar heat capacity at constant pressure [J/K/mol]
[2]	223.91 ± 4.5

CO [methanol]
Conditions	molar heat capacity at constant pressure [J/K/mol]
[2]	80.81 ± 1.6

CCCCCO [pentan-1-ol]
Conditions	molar heat capacity at constant pressure [J/K/mol]
[2]	206.67 ± 4.1

CCCO [propan-1-ol]
Conditions	molar heat capacity at constant pressure [J/K/mol]
[2]	143.41 ± 2.9
